Patent publication US4652547A (Eli Lilly and Company, priority 1984, dated 1987)

Tested on: plasma glucose
Assay: Response of fasting Type II diabetic patients: plasma glucose and hypoglycemia
Conditions: 0.2 U/kg s.c.

## human proinsulin
Subject (total dose 15.0 I.U.), 200 min after injection
  Plasma Glucose: 247 mg/dL
Subject (total dose 15.0 I.U.), 240 min after injection
  Plasma Glucose: 210 mg/dL
Subject (total dose 15.0 I.U.), 280 min after injection
  Plasma Glucose: 174 mg/dL
Subject (total dose 15.0 I.U.), 360 min after injection
  Plasma Glucose: 94 mg/dL
Subject four (total dose 27.2 I.U.), 0 min after injection
  Plasma Glucose: 159 mg/dL
Subject four (total dose 27.2 I.U.), 40 min after injection
  Plasma Glucose: 144 mg/dL
Subject four (total dose 27.2 I.U.), 120 min after injection
  Plasma Glucose: 128 mg/dL
Subject four (total dose 27.2 I.U.), 200 min after injection
  Plasma Glucose: 110 mg/dL
Subject four (total dose 27.2 I.U.), 240 min after injection
  Plasma Glucose: 101 mg/dL
Subject four (total dose 27.2 I.U.), 280 min after injection
  Plasma Glucose: 98 mg/dL
Subject four (total dose 27.2 I.U.), 300 min after injection
  Plasma Glucose: 88 mg/dL
Subject four (total dose 27.2 I.U.), 360 min after injection
  Plasma Glucose: 84 mg/dL
Subject four (total dose 27.2 I.U.), 400 min after injection
  Plasma Glucose: 85 mg/dL
Subject four (total dose 27.2 I.U.), 440 min after injection
  Plasma Glucose: 86 mg/dL
Subject four (total dose 27.2 I.U.), 480 min after injection
  Plasma Glucose: 88 mg/dL
Subject one (total dose 14.8 I.U.), 0 min after injection
  Plasma Glucose: 213 mg/dL
Subject one (total dose 14.8 I.U.), 40 min after injection
  Plasma Glucose: 203 mg/dL
Subject one (total dose 14.8 I.U.), 80 min after injection
  Plasma Glucose: 187 mg/dL
Subject one (total dose 14.8 I.U.), 160 min after injection
  Plasma Glucose: 140 mg/dL
Subject one (total dose 14.8 I.U.), 240 min after injection
  Plasma Glucose: 81 mg/dL
Subject one (total dose 14.8 I.U.), 280 min after injection
  Plasma Glucose: 77 mg/dL
Subject one (total dose 14.8 I.U.), 300 min after injection
  Plasma Glucose: 80 mg/dL
Subject one (total dose 14.8 I.U.), 320 min after injection
  Plasma Glucose: 80 mg/dL
Subject three (total dose 16.3 I.U.), 0 min after injection
  Plasma Glucose: 290 mg/dL
Subject three (total dose 16.3 I.U.), 40 min after injection
  Plasma Glucose: 282 mg/dL
Subject three (total dose 16.3 I.U.), 80 min after injection
  Plasma Glucose: 272 mg/dL
Subject three (total dose 16.3 I.U.), 120 min after injection
  Plasma Glucose: 250 mg/dL
Subject three (total dose 16.3 I.U.), 160 min after injection
  Plasma Glucose: 230 mg/dL
Subject three (total dose 16.3 I.U.), 200 min after injection
  Plasma Glucose: 200 mg/dL
Subject three (total dose 16.3 I.U.), 240 min after injection
  Plasma Glucose: 183 mg/dL
Subject three (total dose 16.3 I.U.), 280 min after injection
  Plasma Glucose: 152 mg/dL
Subject three (total dose 16.3 I.U.), 300 min after injection
  Plasma Glucose: 127 mg/dL
Subject three (total dose 16.3 I.U.), 360 min after injection
  Plasma Glucose: 101 mg/dL
Subject three (total dose 16.3 I.U.), 400 min after injection
  Plasma Glucose: 82 mg/dL
Subject three (total dose 16.3 I.U.), 440 min after injection
  Plasma Glucose: 77 mg/dL
Subject two (total dose 20.0 I.U.), 0 min after injection
  Plasma Glucose: 231 mg/dL
Subject two (total dose 20.0 I.U.), 40 min after injection
  Plasma Glucose: 217 mg/dL
Subject two (total dose 20.0 I.U.), 80 min after injection
  Plasma Glucose: 201 mg/dL
Subject two (total dose 20.0 I.U.), 120 min after injection
  Plasma Glucose: 191 mg/dL
Subject two (total dose 20.0 I.U.), 160 min after injection
  Plasma Glucose: 182 mg/dL
Subject two (total dose 20.0 I.U.), 240 min after injection
  Plasma Glucose: 164 mg/dL
Subject two (total dose 20.0 I.U.), 280 min after injection
  Plasma Glucose: 143 mg/dL
Subject two (total dose 20.0 I.U.), 300 min after injection
  Plasma Glucose: 134 mg/dL
Subject two (total dose 20.0 I.U.), 360 min after injection
  Plasma Glucose: 128 mg/dL
Subject two (total dose 20.0 I.U.), 400 min after injection
  Plasma Glucose: 117 mg/dL
Subject two (total dose 20.0 I.U.), 440 min after injection
  Plasma Glucose: 112 mg/dL
Subject two (total dose 20.0 I.U.), 480 min after injection
  Plasma Glucose: 104 mg/dL
Subject two (total dose 20.0 I.U.), 500 min after injection
  Plasma Glucose: 100 mg/dL
